Each compound was assayed against ACL (Homo sapiens (Human), UniProt P53396) (assay: ADP-Glo Assay).
Chain of ACL (P53396 other isoform, or with tags, fused parts or gaps isoform P53396-2): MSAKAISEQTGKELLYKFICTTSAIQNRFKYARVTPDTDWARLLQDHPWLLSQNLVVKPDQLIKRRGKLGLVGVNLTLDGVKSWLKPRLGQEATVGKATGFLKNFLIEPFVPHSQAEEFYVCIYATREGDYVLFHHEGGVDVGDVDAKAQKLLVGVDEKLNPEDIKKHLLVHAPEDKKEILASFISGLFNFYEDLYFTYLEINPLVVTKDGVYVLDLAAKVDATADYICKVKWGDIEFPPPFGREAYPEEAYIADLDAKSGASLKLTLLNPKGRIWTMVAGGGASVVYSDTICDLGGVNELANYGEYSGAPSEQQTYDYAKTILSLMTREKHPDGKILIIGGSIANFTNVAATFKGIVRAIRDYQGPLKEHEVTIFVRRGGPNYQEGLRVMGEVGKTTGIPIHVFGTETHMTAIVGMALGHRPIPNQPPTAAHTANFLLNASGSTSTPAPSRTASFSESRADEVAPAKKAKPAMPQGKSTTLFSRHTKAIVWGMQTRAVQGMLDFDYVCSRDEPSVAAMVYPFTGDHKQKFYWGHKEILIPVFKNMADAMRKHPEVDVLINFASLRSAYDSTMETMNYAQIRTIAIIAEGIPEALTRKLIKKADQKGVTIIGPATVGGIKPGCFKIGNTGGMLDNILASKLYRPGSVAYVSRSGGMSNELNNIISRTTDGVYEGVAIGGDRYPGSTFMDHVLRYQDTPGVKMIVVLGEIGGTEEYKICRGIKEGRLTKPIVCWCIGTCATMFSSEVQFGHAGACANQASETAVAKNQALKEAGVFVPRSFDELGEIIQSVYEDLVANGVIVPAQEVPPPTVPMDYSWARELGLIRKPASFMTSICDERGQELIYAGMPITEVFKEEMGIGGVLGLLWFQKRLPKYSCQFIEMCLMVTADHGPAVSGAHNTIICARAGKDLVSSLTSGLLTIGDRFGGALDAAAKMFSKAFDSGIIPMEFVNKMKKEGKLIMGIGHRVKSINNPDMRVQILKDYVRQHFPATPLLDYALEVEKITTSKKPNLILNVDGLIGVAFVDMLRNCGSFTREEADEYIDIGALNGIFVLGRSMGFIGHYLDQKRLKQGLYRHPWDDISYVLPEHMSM

| IC50 | Structure (SMILES) |
| --- | --- |
| 0.5 to 20 µM | O=C(O)c1ccc(-c2ccccc2)cc1NS(=O)(=O)c1cc(Br)cc2c1OCCNC2=O [I-359] |
| 0.5 to 20 µM | O=C(c1c[nH]c(=O)c(S(=O)(=O)Nc2cc(-c3ccccc3)ccc2F)c1)N1CCC1 [I-369, 5-(azetidine-1-carbonyl)-N-(4-fluoro-[1,1′-biphenyl]-3-yl)-2-oxo-1,2-dihydropyridine-3-sulfonamide] |
| 0.5 to 20 µM | CCS(=O)(=O)Nc1cc(OC)ccc1S(=O)(=O)Nc1cc(-c2ccccc2)ccc1F [I-254] |
| 0.5 to 20 µM | CNC(=O)COc1c(Cl)cc(Cl)cc1S(=O)(=O)Nc1cc(-c2ccccc2)ccc1F [I-152, 2-(2,4-dichloro-6-(N-(4-fluoro-[1,1′-biphenyl]-3-yl)sulfamoyl)phenoxy)-N-methylacetamide] |
| 0.5 to 20 µM | CC(=O)c1cccc(S(=O)(=O)Nc2cc(-c3ccccc3)ccc2C(=O)O)c1 [I-314, 3-((3-acetylphenyl)sulfonamido)-[1,1′-biphenyl]-4-carboxylic Acid] |
| 0.5 to 20 µM | O=C(Oc1c(Cl)cc(C(=O)N2CCC2)cc1S(=O)(=O)N(C(=O)C1CC1)c1cc(-c2ccccc2)c(F)cc1F)C1CC1 [I-217, 4-(azetidine-1-carbonyl)-2-chloro-6-[(1-cyclopropyl-N-[4,6-difluoro-[1,1-biphenyl]-3-yl]formamido)sulfonyl]phenylcyclopropanecarboxylate] |
| 0.5 to 20 µM | O=S(=O)(Nc1cc(-c2ccccc2)ccc1F)c1cc(Cl)cc(Cl)c1OC1COC1 [I-122, 3,5-dichloro-N-(4-fluoro-[1,1′-biphenyl]-3-yl)-2-(oxetan-3-yloxy)benzenesulfonamide] |
| > 20 µM | COc1ccc(C(=O)N2CCC2)cc1S(=O)(=O)Nc1cc(-c2ccccc2)c(F)cc1F [I-384, 5-(azetidine-1-carbonyl)-N-[4,6-difluoro-[1,1-biphenyl]-3-yl]-2-methoxybenzene-1-sulfonamide] |
| 0.5 to 20 µM | O=C(NCc1cc(-c2ccccc2)ccc1C(=O)O)c1cc(Cl)cc(Cl)c1 [I-309, 3-((3,5-dichlorobenzamido)methyl)-[1,1′-biphenyl]-4-carboxylic Acid] |
| 0.5 to 20 µM | O=C(O)c1ccc(-c2ccccc2)cc1NS(=O)(=O)c1ccc(Cl)c(Cl)c1 [I-284, 3-((3,4-dichlorophenyl)sulfonamido)-[1,1′-biphenyl]-4-carboxylic acid] |
| > 20 µM | COC(=O)c1cc(Cl)c(OC)c(S(=O)(=O)Nc2cc(-c3ccccc3)ccc2OC)c1 [I-428, Methyl 3-chloro-4-methoxy-5-(N-(4-methoxy-[1,1′-biphenyl]-3-yl)sulfamoyl)benzoate] |
| 0.5 to 20 µM | O=C(O)COc1ccc(-c2ccccc2)cc1NS(=O)(=O)c1cc(Cl)cc(Cl)c1 [I-244, 2-[[3-(3,5-dichlorobenzenesulfonamido)-[1,1-biphenyl]-4-yl]oxy]acetic Acid] |
| 0.5 to 20 µM | O=C1COc2cc(S(=O)(=O)Nc3cc(-c4ccccc4)ccc3F)c(Cl)cc2N1 [I-255] |
| 0.5 to 20 µM | NC(=O)Cc1ccc(-c2ccccc2)cc1NS(=O)(=O)c1cc(Cl)cc(Cl)c1 [I-245, 2-(3-((3,5-dichlorophenyl)sulfonamido)-[1,1′-biphenyl]-4-yl)acetamide] |
| 0.5 to 20 µM | O=C(O)c1ccc(-c2ccccc2)cc1NS(=O)(=O)Cc1ccccc1 [I-257] |
| > 20 µM | COc1ccc(C(=O)O)cc1NS(=O)(=O)c1cc(Cl)cc(Cl)c1O [I-404, 3-((3,5-dichloro-2-hydroxyphenyl)sulfonamido)-4-methoxybenzoic acid] |
| 0.5 to 20 µM | O=S(=O)(Nc1ccccc1Oc1ccccc1)c1cc(Cl)cc(Cl)c1O [I-285, 3,5-dichloro-2-hydroxy-N-(2-phenoxyphenyl)benzene-1-sulfonamide] |
| > 20 µM | COc1ccc(-c2ccccc2)cc1NS(=O)(=O)c1cccc(C(=O)O)c1 [I-406, 3-(N-(4-methoxy-[1,1′-biphenyl]-3-yl)sulfamoyl)benzoic acid] |
| > 20 µM | COc1ccc(-c2ccccc2)cc1NS(=O)(=O)c1cccc(C#N)c1 [I-396, 3-cyano-N-(2-methoxy-5-phenylphenyl) benzene-1-sulfonamide] |
| 0.5 to 20 µM | CC(C)Cc1csc(NS(=O)(=O)c2cc(Cl)cc(Cl)c2O)c1C(=O)N1CCOCC1 [I-165] |
| > 20 µM | COc1ccc(-c2ccccc2)cc1N(Cc1ccccc1)S(=O)(=O)c1c(C)c(Cl)cc(Cl)c1OCc1ccccc1 [I-397, N-benzyl-2-(benzyloxy)-3,5-dichloro-N-(4-methoxy-[1,1′-biphenyl]-3-yl)-6-methylbenzenesulfonamide] |
| 0.5 to 20 µM | COC(=O)c1cc(Cl)c(OC)c(S(=O)(=O)Nc2cc(-c3cccs3)ccc2F)c1 [I-52, Methyl 3-chloro-5-(N-(2-fluoro-5-(thiophen-2-yl)phenyl)sulfamoyl)-4-methoxybenzoate] |
| > 20 µM | COc1ccc(-c2ccccc2)cc1NS(=O)(=O)c1cc(Cl)cc(Cl)c1C(=O)O [I-398, 2,4-dichloro-6-(N-(4-methoxy-[1,1′-biphenyl]-3-yl)sulfamoyl) Benzoic Acid] |
| 0.5 to 20 µM | CC(C)(C)OC(=O)COc1ccc(-c2ccccc2)cc1NS(=O)(=O)c1cc(C(F)(F)F)cc(Cl)c1O [I-265, tert-butyl 2-([3-[3-chloro-2-hydroxy-5-(trifluoromethyl)benzenesulfonamido]-[1,1-biphenyl]-4-yl]oxy)acetate] |

| IC50 | Structure (SMILES) |
| --- | --- |
| 0.5 to 20 µM | O=S(=O)(N[C@H]1C[C@H](c2ccc(F)cc2)C1)c1cc(Cl)cc(Cl)c1O [I-167] |
| 0.5 to 20 µM | CC(C)NC(=O)c1ccc(NS(=O)(=O)c2cc(Cl)cc(Cl)c2O)cc1 [I-178] |
| 0.5 to 20 µM | O=C(COc1c(Cl)cc(Cl)cc1S(=O)(=O)Nc1cc(-c2ccccc2)ccc1F)N1CCC1 [I-153, 2-(2-(azetidin-1-yl)-2-oxoethoxy)-3,5-dichloro-N-(4-fluoro-[1,1′-biphenyl]-3-yl)benzenesulfonamide] |
| 0.5 to 20 µM | O=S(=O)(NCc1nc(-c2cccc(F)c2)no1)c1cc(Cl)cc(Cl)c1O [I-168] |
| 0.5 to 20 µM | O=S(=O)(Nc1cc(-n2nccn2)c(F)cc1F)c1cc(Cl)cc(Cl)c1O [I-290, 3,5-dichloro-N-[2,4-difluoro-5-(2H-1,2,3-triazol-2-yl)phenyl]-2-hydroxybenzene-1-sulfonamide] |
| 0.5 to 20 µM | O=C(O)c1cc(-c2ccccc2)ccc1NS(=O)(=O)c1cc(Cl)cc(Cl)c1 [I-278, 4-((3,5-dichlorophenyl)sulfonamido)-[1,1′-biphenyl]-3-carboxylic acid] |
| > 20 µM | COC(=O)c1ccnc(NS(=O)(=O)c2cc(Cl)cc(Cl)c2O)c1 [I-525, methyl 2-((3,5-dichloro-2-hydroxyphenyl)sulfonamido)isonicotinate] |
| > 20 µM | Cn1ccc(Oc2c(Cl)cc(Cl)cc2S(=O)(=O)Nc2cc(-c3ccccc3)ccc2F)n1 [I-443, 3,5-dichloro-N-(4-fluoro-[1,1′-biphenyl]-3-yl)-2-((1-methyl-1H-pyrazol-3-yl)oxy)benzenesulfonamide] |
| > 20 µM | COC(=O)c1cc(Cl)cc(S(=O)(=O)Nc2cc(-c3ccccc3)ccc2OC)c1OC [I-435, Methyl 5-chloro-2-methoxy-3-(N-(4-methoxy-[1,1′-biphenyl]-3-yl)sulfamoyl)benzoate] |
| > 20 µM | COc1ccc(-c2ccccc2)cc1NS(=O)(=O)c1cc(C(=O)N2CCC2)cc(Cl)c1OC [I-374, 5-(azetidine-1-carbonyl)-3-chloro-2-methoxy-N-[4-methoxy-[1,1-biphenyl]-3-yl]benzene-1-sulfonamide] |
| > 20 µM | COc1c(Cl)cc(C(=O)N2CCC2)cc1S(=O)(=O)Nc1cc(-c2ccccc2)c(F)cc1F [I-378, 5-(azetidine-1-carbonyl)-3-chloro-N-[4,6-difluoro-[1,1-biphenyl]-3-yl]-2-methoxybenzene-1-sulfonamide] |
| 0.5 to 20 µM | O=c1[nH]c2cc(F)c(S(=O)(=O)Nc3cc(-c4ccccc4)ccc3F)cc2o1 [I-253] |
| 0.5 to 20 µM | COc1ccc(-c2ccccc2)cc1NS(=O)(=O)c1cc(-c2nn[nH]n2)cc(Cl)c1OC [I-71, 3-chloro-2-methoxy-N-(2-methoxy-5-phenylphenyl)-5-(2H-1,2,3,4-tetrazol-5-yl)benzene-1-sulfonamide] |
| 0.5 to 20 µM | COC(=O)c1ncccc1S(=O)(=O)Nc1cc(-c2ccccc2)ccc1F [I-250] |
| 0.5 to 20 µM | O=S(=O)(Nc1cc(-c2ccccc2)ccc1F)c1cccc(-c2nn[nH]n2)c1 [I-37, N-(2-fluoro-5-phenylphenyl)-3-(2H-1,2,3,4-tetrazol-5-yl) benzene-1-sulfonamide] |
| 0.5 to 20 µM | O=C(O)c1cc(Cl)c(O)c(S(=O)(=O)Nc2ccccc2F)c1 [I-283, 3-chloro-5-[(2-fluorophenyl)sulfamoyl]-4-hydroxybenzoic acid] |
| > 20 µM | CO[C@@H]1CCN(C(=O)c2cc(Cl)cc(S(=O)(=O)Nc3cc(-c4ccccc4)c(F)cc3F)c2)C1 [I-388, (R)-3-chloro-N-(4,6-difluoro-[1,1′-biphenyl]-3-yl)-5-(3-methoxypyrrolidine-1-carbonyl)benzenesulfonamide] |
| > 20 µM | O=S(=O)(Nc1cc(-c2ccccc2)c(F)cc1F)c1cccc2c1OCCO2 [I-383, N-[4,6-difluoro-[1,1-biphenyl]-3-yl]-2,3-dihydro-1,4-benzodioxine-5-sulfonamide] |
| 0.5 to 20 µM | O=S(=O)(NC1(c2ccc(F)cc2)CC1)c1cc(Cl)cc(Cl)c1O [I-180] |
| 0.5 to 20 µM | O=S(=O)(Nc1cc(-c2ccccc2)ccc1F)c1ccc(Cl)c(-c2nnn[nH]2)c1 [I-252] |
| > 20 µM | CS(=O)(=O)c1cc(Cl)cc(S(=O)(=O)Nc2cc(-c3ccccc3)c(F)cc2F)c1 [I-392, 3-chloro-N-(4,6-difluoro-[1,1′-biphenyl]-3-yl)-5-(methylsulfonyl)benzenesulfonamide] |
| 0.5 to 20 µM | O=C(O)COc1ccc(-c2ccccc2)cc1NS(=O)(=O)c1cc(C(=O)N2CCC2)cc(Cl)c1O [I-270, 2-([3-[5-(azetidine-1-carbonyl)-3-chloro-2-hydroxybenzenesulfonamido]-[1,1-biphenyl]-4-yl]oxy)acetic Acid] |
| 0.5 to 20 µM | COC(=O)c1ccc(-c2ccccc2)cc1NS(=O)(=O)c1cc(Cl)cnc1O [I-346, methyl 3-((5-chloro-2-hydroxypyridine)-3-sulfonamido)-[1,1′-biphenyl]-4-carboxylate] |
| 0.5 to 20 µM | O=S(=O)(Nc1ccc(F)cc1F)c1cc(Cl)cc(Cl)c1O [I-219, 3,5-dichloro-N-(2,4-difluorophenyl)-2-hydroxybenzene-1-sulfonamide] |
